Results from patent US20120302573A1, “METHODS OF INHIBITING PRO MATRIX METALLOPROTEINASE ACTIVATION” (priority 2011, published 2012).
Where a name gives a salt, the structure may show the parent alone.

Key:
[1] = biological target: T1, proMMP9(67-444;ΔFnII) (SEQ ID NO:5) (Homo sapiens, UniProt P14780, DEL216-390); assay: ThermoFluor binding assay with proMMP9(67-444;ΔFnII)
T1 construct: amino acid pairs including: 29-215/391-444, 67-215/391-444, and 20-215/391-445, respectively; start methionine (N); made in house; host or cells: E. coli BL21(DE3) RIL
T1 sequence (P14780 with tags, fused parts or gaps DEL216-390): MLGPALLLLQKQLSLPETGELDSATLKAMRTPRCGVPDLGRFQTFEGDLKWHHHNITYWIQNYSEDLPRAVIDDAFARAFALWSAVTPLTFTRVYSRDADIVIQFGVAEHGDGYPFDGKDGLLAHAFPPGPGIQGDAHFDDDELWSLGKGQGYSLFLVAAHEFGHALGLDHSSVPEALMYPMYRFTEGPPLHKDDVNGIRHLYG
Description: (§1) The experiments were carried out using instruments available from Johnson & Johnson Pharmaceutical Research & Development, LLC. TF dye used in all experiments was […] (1,8-ANS) (Invitrogen: A-47).
(§2) Columns 12 and 24 were used as DMSO reference and contained no compound. […] Following compound dispense, protein and dye solutions were added to achieve the final assay volume of 3 μL.
(§3) Assay plates were robotically loaded onto a thermostatically controlled PCR-type thermal block and then heated from 40 to 90° C. at a ramp-rate of 1° C./min for all experiments. Fluorescence was measured by continuous illumination with UV light (Hamamatsu LC6) supplied via fiber optics and filtered through a band-pass filter (380-400 nm; >6 OD cutoff). Fluorescence emission of the entire 384-well plate was detected by measuring light intensity using a CCD camera (Sensys, Roper Scientific) filtered to detect 500±25 nm, resulting in simultaneous and independent readings of all 384 wells.
(§4) Thermodynamic parameters necessary for fitting compound binding for each proMMP were estimated by differential scanning calorimetry (DSC) and from ThermoFluor® data. The heat capacity of unfolding for each protein was estimated from the molecular weight and from ThermoFluor® dosing data.
The protein sample preparations had to include a desalting buffer exchange step via a PD-10 gravity column (GE Healthcare).

[2] = biological target: T2, proMMP9(20-445;ΔFnII) (SEQ ID NO:6) (Homo sapiens, UniProt P14780, DEL216-390); assay: ThermoFluor binding assay with proMMP9(20-445;ΔFnII)
T2 construct: amino acid pairs including: 29-215/391-444, 67-215/391-444, and 20-215/391-445, respectively; start methionine (N); made in house; host or cells: E. coli BL21(DE3) RIL
T2 sequence (P14780 with tags, fused parts or gaps DEL216-390): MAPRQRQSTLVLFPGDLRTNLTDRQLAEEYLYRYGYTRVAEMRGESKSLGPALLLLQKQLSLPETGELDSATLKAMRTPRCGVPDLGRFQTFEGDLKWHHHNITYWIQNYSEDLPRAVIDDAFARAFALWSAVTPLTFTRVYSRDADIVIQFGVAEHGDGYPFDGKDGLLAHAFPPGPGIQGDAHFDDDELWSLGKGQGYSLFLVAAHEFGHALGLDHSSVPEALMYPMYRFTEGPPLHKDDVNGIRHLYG
Description: as §1, §2, §3, §4
The protein sample preparations included a desalting buffer exchange step via a PD-10 gravity column (GE Healthcare).

[3] = biological target: full-length proMMP9(1-707) activation by catalytic MMP3 (Homo sapiens, UniProt P14780, R574P); assay: ProMMP9/MMP3 DQ Gelatin Activation Assay;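 also: readout is fluorescence of quenched fluorescein gelatin cut by activated MMP9, 30 min activation at 37 °C, inhibition relative to DMSO-only controls with EDTA as blank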; type: biochemical; design: made in house; host or cells: COS-1 (proMMP9); E. coli (MMP3); details: proMMP9 from COS-1 cells; read-out: ProMMP9/MMP3 DQ gel, IC50
full-length proMMP9(1-707) activation by catalytic MMP3, sequence (P14780 20-707 R574P): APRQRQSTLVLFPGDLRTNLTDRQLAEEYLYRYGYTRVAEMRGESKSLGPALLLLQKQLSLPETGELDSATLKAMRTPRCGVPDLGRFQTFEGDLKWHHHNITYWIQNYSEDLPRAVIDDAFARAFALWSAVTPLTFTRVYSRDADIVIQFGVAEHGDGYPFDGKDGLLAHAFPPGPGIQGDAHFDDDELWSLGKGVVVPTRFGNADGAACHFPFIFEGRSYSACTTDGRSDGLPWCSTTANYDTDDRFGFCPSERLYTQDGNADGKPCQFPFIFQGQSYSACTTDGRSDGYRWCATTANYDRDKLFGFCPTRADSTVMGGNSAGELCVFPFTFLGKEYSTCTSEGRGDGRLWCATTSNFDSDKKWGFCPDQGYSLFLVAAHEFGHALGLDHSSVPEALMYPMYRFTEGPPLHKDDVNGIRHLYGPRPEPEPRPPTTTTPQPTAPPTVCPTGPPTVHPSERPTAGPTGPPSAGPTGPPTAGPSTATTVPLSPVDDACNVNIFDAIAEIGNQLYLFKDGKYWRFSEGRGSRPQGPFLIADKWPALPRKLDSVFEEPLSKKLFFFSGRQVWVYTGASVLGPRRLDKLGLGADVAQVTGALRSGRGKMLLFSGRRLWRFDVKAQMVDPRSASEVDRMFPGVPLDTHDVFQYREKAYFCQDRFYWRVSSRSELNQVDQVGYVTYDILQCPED
Description: Compounds were assessed for inhibition of proMMP9 activation by catalytic MMP3 using a quenched fluorescein gelatin substrate (DQ gelatin, Invitrogen D12054) that fluoresces upon cleavage by activated MMP9. The assay buffer employed was 50 mM Hepes, pH 7.5, 10 mM CaCl2, 0.05% Brij-35. DMSO was included at a final concentration of 0.2%, arising from the test compound addition. […] Test compounds in DMSO were diluted 250-fold in assay buffer at 4× the final concentration. The reaction volume was 12 μL, and all reactions were conducted in triplicate. […] The plate was sealed and incubated for 30 min at 37° C. […] Immediately following the 30 min incubation, 4 μL of 40 μg/ml DQ gelatin substrate was added (freshly diluted in assay buffer), and incubated for 10 min at room temperature. […] Reactivity of residual MMP3 towards DQ gelatin was minimal under these conditions. Percent inhibition of test compounds were determined from suitable positive (DMSO only in assay buffer) and negative (EDTA added prior to reaction initiation) controls. Plots of % inhibition vs. test compound concentration were fit to a four-parameter logistics equation (GraphPad Prism® software) for determination of IC50.

Kd [1]	Kd [2]	IC50 [3]	Molecule
> 81 µM	19 µM		Cc1nc(C)c(-c2csc(Nc3cccc(C(N)=O)c3)n2)s1 [Example 9, 3-(2′,4′-Dimethyl-[4,5′]bithiazolyl-2-ylamino)-benzamide]
3.86 µM	> 52 µM		CC(=O)Nc1nc(C)c(-c2csc(Nc3ccccc3OCC3CC3)n2)s1 [Example 19, N-[2-(2-Cyclopropylmethoxy-phenylamino)-4′-methyl-[4,5′]bithiazolyl-2′-yl]-acetamide.TFA]
5.53 µM	> 35 µM	26.2 µM	COc1ccc(Nc2nc(-c3sc(NC(C)=O)nc3C)cs2)c(OC)c1 [Example 23, N-[2-(2,4-Dimethoxy-phenylamino)-4′-methyl-[4,5′]bithiazolyl-2′-yl]-acetamide.TFA]
> 38 µM	0.37 µM	> 20 µM	c1cncc(-c2csc(Nc3ccccc3OCc3cccs3)n2)c1 [Example 24, (4-Pyridin-3-yl-thiazol-2-yl)-[2-(thiophen-2-ylmethoxy)-phenyl]-amine.TFA]
16.3 µM	12.5 µM	> 20 µM	CCCOc1ccccc1Nc1nc(-c2cccnc2)cs1 [Example 25, (2-Propoxy-phenyl)-(4-pyridin-3-yl-thiazol-2-yl)-amine]
		14.4 µM	COc1ccccc1Nc1nc(-c2cnccc2C)cs1 [Example 29, (2-Methoxy-phenyl)-[4-(4-methyl-pyridin-3-yl)-thiazol-2-yl]-amine.TFA]
0.645 µM	3.34 µM	3.3 µM	CC(=O)Nc1nc(C)c(-c2csc(Nc3ccccc3OC(F)(F)F)n2)s1 [Example 31, N-[4′-Methyl-2-(2-trifluoromethoxy-phenylamino)-[4,5′]bithiazolyl-2′-yl]-acetamide.HCl]
9.06 µM	> 9.2 µM	> 20 µM	CC(=O)Nc1nc(C)c(-c2csc(Nc3ccccc3C(F)(F)F)n2)s1 [Example 32, N-[4′-Methyl-2-(2-trifluoromethyl-phenylamino)-[4,5′]bithiazolyl-2′-yl]-acetamide.TFA]
0.695 µM	3.75 µM	2.9 µM	CSc1ccccc1Nc1nc(-c2sc(NC(C)=O)nc2C)cs1 [Example 33, N-[4′-Methyl-2-(2-methylsulfanyl-phenylamino)-[4,5′]bithiazolyl-2′-yl]-acetamide.HCl]
3.92 µM	10.3 µM	7 µM	CNc1nc(C)c(-c2csc(Nc3ccccc3OC)n2)s1 [Example 35, N^2-(2-Methoxy-phenyl)-4′,N^2′-dimethyl-[4,5′]bithiazolyl-2,2′-diamine]
> 11 µM	> 11 µM	1.7 µM	COc1ccccc1Nc1nc(-c2sc(N(C)C(C)=O)nc2C)cs1 [Example 36, N-[2-(2-Methoxy-phenylamino)-4′-methyl-[4,5′]bithiazolyl-2′-yl]-N-methyl-acetamide.TFA]
> 8.3 µM	> 8.3 µM	9.6 µM	CCNc1nc(C)c(-c2csc(Nc3ccccc3OC)n2)s1 [Example 38]
2.49 µM	6.35 µM	17.1 µM	CC(=O)Nc1nc(C)c(-c2csc(Nc3ccccc3Cl)n2)s1 [Example 39, N-[2-(2-Chloro-phenylamino)-4′-methyl-[4,5′]bithiazolyl-2′-yl]-acetamide.HCl]
16.3 µM	> 18 µM	> 20 µM	CC(=O)Nc1nc(C)c(-c2csc(Nc3ccccc3F)n2)s1 [Example 40, N-[2-(2-Fluoro-phenylamino)-4′-methyl-[4,5′]bithiazolyl-2′-yl]acetamide.TFA]
4.73 µM	17.5 µM		COc1ccc(Nc2nc(-c3sc(N)nc3C)cs2)c(OC)c1 [Example 48, N^2-(2,4-Dimethoxy-phenyl)-4′-methyl-[4,5′]bithiazolyl-2,2′-diamine]
8.7 µM	> 17 µM	5.7 µM	COc1ccccc1Nc1nc(C2(C)CC3(CC(C)OC3=O)C(=O)O2)cs1 (stereo not shown) [Example 49, 3-[2-(2-Methoxy-phenylamino)-thiazol-4-yl]-3,8-dimethyl-2,7-dioxa-spiro[4.4]nonane-1,6-dione]
4.05 µM	> 14 µM	21.2 µM	COc1ccccc1Nc1nc(-c2sc(NC(=O)c3ccccc3)nc2C)cs1 [Example 50, N-[2-(2-Methoxy-phenylamino)-4′-methyl-[4,5′]bithiazolyl-2′-yl]-benzamide]
> 15 µM	> 16 µM	10.1 µM	COc1ccc(OC)c(Nc2nc(-c3c(C)nc4ccccn34)cs2)c1 [Example 51, (2,5-Dimethoxy-phenyl)-[4-(2-methyl-imidazo[1,2-a]pyridin-3-yl)-thiazol-2-yl]-amine]
17.9 µM	> 65 µM	16.1 µM	COc1ccc(OC)c(Nc2nc(-c3cccnc3)cs2)c1 [Example 54, (2,5-Dimethoxy-phenyl)-(4-pyridin-3-yl-thiazol-2-yl)-amine]
14.6 µM	> 70 µM	> 20 µM	COc1ccc(Cl)cc1Nc1nc(-c2cccnc2)cs1 [Example 56, (5-Chloro-2-methoxy-phenyl)-(4-pyridin-3-yl-thiazol-2-yl)-amine]
5.13 µM	19.6 µM	28.2 µM	CC(=O)Nc1nc(C)c(-c2csc(Nc3ccccc3C)n2)s1 [Example 63, N-(4′-Methyl-2-o-tolylamino-[4,5′]bithiazolyl-2′-yl)-acetamide]
> 6.1 µM	> 6.1 µM	1.9 µM	CCOc1ccccc1Nc1nc(-c2sc(NC(C)=O)nc2C)cs1 [Example 66, N-[2-(2-Ethoxy-phenylamino)-4′-methyl-[4,5′]bithiazolyl-2′-yl]-acetamide]
> 15 µM	> 15 µM	11.2 µM	COc1ccccc1Nc1nc(C2(C)CC3(CC(C)(C)OC3=O)C(=O)O2)cs1 (stereo not shown) [Example 69, 3-[2-(2-Methoxy-phenylamino)-thiazol-4-yl]-3,8,8-trimethyl-2,7-dioxa-spiro[4.4]nonane-1,6-dione]
6.56 µM	11.7 µM	6.9 µM	CCOc1ccccc1Nc1nc(-c2cnc3ncccn23)cs1 [Example 71, (2-Ethoxy-phenyl)-(4-imidazo[1,2-a]pyrimidin-3-yl-thiazol-2-yl)-amine]
> 58 µM	6.53 µM	3.1 µM	(5-Chloro-2-methoxy-phenyl)-(4-imidazo[1,2-a]pyrazin-3-yl-thiazol-2-yl)-amine [Example 72]
